Test results: patent US20110256121A1, “METHODS AND KITS FOR DIAGNOSING OR MONITORING AUTOIMMUNE AND CHRONIC INFLAMMATORY DISEASES” (THE REGENTS OF THE UNIVERSITY OF MICHIGAN, priority 2008, published 2011)

Key:
Type in all cases: cell-based, human
KIR2DL2 promoter [1] = experiment: KIR2DL2 promoter methylation, bisulfite sequencing and MS-PCR
Protocol: Bisulfite conversion and DNA sequencing. Genomic DNA was isolated from T cells using FlexiGene DNA Kits (QIAGEN) then treated with sodium bisulfite as described (15). HotStar Taq (QIAGEN) was used for amplification with the following conditions: initial incubation 95° C. 15 min, then 45 cycles 95° C. 30 s, 52° C. 30 s and 72° C. 30 s. PCR products were purified using QIAEXII Gel Extraction Kits (QIAGEN), and cloned using the pGEM-T Easy Vector System (Promega, Madison, Wis.). 10 cloned fragments were sequenced for each sample by the University of Michigan Sequencing Core.
Real-time quantitative methylation specific PCR (MSP). Three real-time MSP assays were developed for detection and quantitation of each KIR gene: one specific for the bisulfite-converted methylated sequence, one for the bisulfite-converted unmethylated sequence, and a loading control comprising primers to an adjacent bisulfite-converted sequence lacking CG pairs. MSP reactions were performed using QuantiTect SYBR Green PCR kits (QIAGEN) according to the manufacture's protocol using […] of each primer, 100 ng converted DNA and the Rotor-Gene 3000. […] Levels of amplified methylated and unmethylated fragments were standardized to the control fragment, and the methylation index calculated as […]

KIR2DL2 promoter [2] = experiment: KIR2DL2 promoter reporter construct assay in T cells
Protocol: Reporter construct assays. Amplified KIR promoter fragments were subcloned into the EcoRI site of the promoterless pmaxFP-Yellow-PRL vector (Amaxa GmbH). Plasmids were purified using QIAGEN EndoFree Plasmid Kits (QIAGEN), and 2 μg of DNA transfected into untreated or 5-azaC treated human T cells using the human T cell nucleofector kit (Amaxa GmbH) and the manufacturer's protocol. Controls included cotransfection with pmaxGFP (Amaxa GmbH) and transfection with the promoterless reporter vector. Fluorescence was measured by flow cytometry. Site directed mutagenesis. Mutations were introduced into the same pmaxFP-Yellow-PRL KIR2DL2 and KIR2DL4 promoter constructs using the QuickChange Multi Site-Directed Mutagenesis Kit (Stratagene, La Jolla, Calif.). The changes include a […]→[…] mutation at −78→−71 in the Sp1 site, a CCC→ACA mutation at −61→−59 in the Ets1 site, or both, in the KIR2DL2 promoter, and a TTT→GGG mutation at −73→−71 in the Ets1 site, a CCC→ACA mutation at −61→−59 in the Ets1 site, or both, in the KIR2DL4 promoter. A separate G→A mutation in the AML site was also introduced into both promoters at −98 (16; 17). The constructs were transfected in to PHA stimulated, 5-azaC treated T cells as above. Controls included transfection with pmaxGFP.
Effects of 5-azaC on KIR transcriptional activator-DNA interactions. […]

[3] = tested on: KIR2DL2 and KIR2DL4 promoters; experiment: Chromatin immunoprecipitation (ChIP) assays; details: 5-azaC treated vs untreated, n=3, p<0.03
Protocol: Chromatin immunoprecipitation (ChIP) assays. Transcription factor binding to KIR2DL2 and KIR2DL4 promoter sequences was determined using mAb to Sp1 (Upstate Biotechnology), Ets1 and AML1 (Abcam) and the ChIP-IT kit with protocols provided by the manufacturer (Active Motif, Carlsbad, Calif.). Briefly, 4.5×10^7 untreated and 5-azaC treated T cells were crosslinked, sonicated, chromatin immunoprecipitated with the relevant mAb, and precipitated DNA amplified by real-time PCR using a Rotor-Gene 3000. Standard curves were determined for each primer set by dilution of the total input 5-azaC treated DNA in a 0.1-100 ng range. The amount of each sequence in the input and precipitated DNA was calculated from the cycle threshold (CT) for each primer set using the standard curves. The primers used were: […]
ChIP assays were then used to compare transcription factor binding to the KIR2DL2 and KIR2DL4 promoters in untreated and 5-azaC treated cells. […] The reason for this is uncertain, but may reflect the structural differences in the KIR2DL2 and KIR2DL4 promoters.

Structure (SMILES): Nc1ncn([C@@H]2O[C@H](CO)[C@@H](O)[C@H]2O)c(=O)n1 [5-azaC, 5-azacytidine]
- KIR2DL2 promoter methylation pattern, bisulfite sequencing (KIR2DL2 promoter [1]; CD4+ and CD8+ cells, 5-azaC treated vs untreated): generalized demethylation throughout the region
- KIR2DL2 promoter methylation index, MS-PCR (KIR2DL2 promoter [1]; CD4+ and CD8+ subsets, p<0.001): demethylates these regions in all 5 subjects
- increase of KIR2DL2 promoter function (KIR2DL2 promoter [2]; 5-azaC treated vs untreated T cells, FIG. 29b, p<0.005): 3-4 fold
- increase of expression of the unmodified KIR2DL2 construct (KIR2DL2 promoter [2]; relative to untreated T cells, FIG. 29c): ~2 fold
- binding of Sp1, Ets1 and AML1 to both promoters [3]: increases binding of all 3 transcription factors
